In US6242452A, “7-aminopyrido[2,3-D]pyrimidine derivatives” (Nippon Zoki Pharmaceutical Co., Ltd., priority 1998, dated 2001):

Tests used:
[1] = Concentration in blood of guinea pigs; type: in vivo; conditions: oral, 30 mg/kg in 1% methyl cellulose, plasma, HPLC; for AUC / Cmax / half-life / Tmax: guinea pig; for AUC: read-out: AUC 0-lim, area under a curve of concentration in blood vs. time; for Cmax: read-out: Cmax, maximum concentration in blood; for half-life: read-out: T1/2, half life in blood (converted); for Tmax: read-out: Tmax, time required for achieving the maximum concentration in blood
Procedure: Concentration in Blood of Guinea Pigs
Each test substance was orally administered at a dose of 30 mg/kg. It was suspended in 1% methyl cellulose and made into a preparation so as to make the administering dose 5 mL/kg. A group consisted of four animals and blood was collected after 30 minutes, 1 hour, 2 hours, 4 hours, 6 hours and 24 hours from the administration. (A feed was given after collection of the blood after 6 hours). Thus, each about […] (corresponding to four capillary tubes) of blood were collected with intervals using a heparintreated capillary tube and plasma was separated by a hematocrit centrifuge to prepare a plasma sample. A plasma sample of about […] was preserved at -80° C. until the measurement. Methanol ([…]) was added to […] of the plasma followed by mixing, the mixture was centrifuged at 1500×g for ten minutes at […] and the separated supernatant liquid was filtered through a membrane filter of […]. The filtrate was used as a sample for an HPLC, analyzed under the analyzing condition that the column was 100 mm×4.6 mm (inner diameter) of TSK-gel Super ODS, the flow rate was 1.0 mL/minute, the column temperature was 40° C., an injection amount was […], detection was done by UV of 225 nm and the mobile phase was water-acetonitrile (75:25 in terms of % by volume) and the maximum concentration in blood (Cmax), time required for achieving the maximum concentration in blood (Tmax), half life in blood (T1/2) and area under a curve of concentration in blood vs. time (AUC 0-lim) were determined. RS-25344 (Cell Signalling, 7(5), 527 (1995); Mol. Pharmacol., 48, 616 (1995)) and CR-77059 (J. Med. Chem., 34, 624 (1991); J. Pharmacol. Exp. Ther., 272, 3,1313 (1995)) were used as control drugs.

[2] = system: airway smooth muscle isolated from guinea pigs; experiment: Relaxing action to smooth muscle of airway of guinea pigs (histamine-constricted); type: cell-based; conditions: Cavia porcellus; guinea pig airway, constricted with 10^-4 M histamine, cumulative addition; read-out: EC50, concentration showing 50% of the maximum reaction (relaxation)
Excerpt: […] Action to Smooth Muscle of Airway of Guinea Pigs A guinea pig was killed by draining out the blood, the airway was isolated, and four airway pieces having a width of about 1 cm cut along the cartilage were connected by silk yarn to prepare an airway smooth muscle sample. The sample was hung with a load of about 0.5 g in a 5-mL Magnus vessel filled with a Tyrode solution and aerated with a mixed gas (95% O2 and 5% CO2). […] This was repeatedly treated with 10^-5 M of histamine and, after confirming that the constriction became constant, it was treated with 10^-4 M of histamine. After the maximum constriction reaction of the smooth muscle became constant, the test compound was added thereto starting from a low concentration cumulatively to investigate the relaxing action. […] Pat. […] Pat. No. 4,808,587 to Go et al and in U.S. Pat. No. 5,776,942 to Furukawa et al) and theophylline were used as control agents.

[3] = system: smooth muscle of blood vessel isolated from rats; experiment: Influence on continuous constriction of smooth muscle of blood vessel isolated from rats (noradrenaline-constricted pulmonary main artery); type: cell-based; conditions: rat pulmonary main artery, constricted with 10^-7 M noradrenaline, 37° C.; read-out: EC50, concentration showing 50% of the maximum reaction (relaxation)
Procedure: Influence on Continuous Constriction of […] Smooth Muscle of Rats
The back of the head of a rat was struck to cause a cerebral concussion, carotid arteries on both sides were immediately cut and the pulmonary main artery was isolated. The isolated artery was fully aerated with a mixed gas (95% O2 and 5% CO2), placed in a Krebs-Henselite solution warmed at 37° C., excessive tissues were removed as much as possible and a spiral sample (having a width of about 2 mm and a length of 15 mm) was prepared according to a method of Furchgott, et al. The blood vessel sample was hung with a load of about 0.5 g in a 5-mL Magnus vessel filled with a Krebs-Henseleit solution and aerated with a mixed gas (95% O2 and 5% CO2). After the sample was allowed to stand for 30 minutes to one hour, it was treated with noradrenaline (final concentration: 10^-7 M) and the constricting reaction was amplified via an amplifier for blood pressure using an FD pickup and recorded on a recorder. Noradrenaline (10^-7 M) was repeatedly applied and, after confirming that the constriction became constant, 10^-7 M of noradrenaline was applied. After the maximum shrinking reaction of the smooth muscle became constant, the test compound was added thereto starting from a low concentration cumulatively to investigate the relaxing action. A dose vs. reaction curve was prepared from the isotonic reaction of various concentrations of the test compound and an EC50, a concentration showing 50% of the maximum reaction, was determined.

[4] = system: Mice; experiment: Influence on general symptoms of mice (modified Irwin's method); type: in vivo; conditions: for Death: oral, 5 mice per group, until the next day
Procedure: Influence on General Symptoms of Mice
Mice having no abnormality in their appearance before administration of the test drugs were selected, and five mice were used for each group. Oral administration of the test compound was carried out and, 30 minutes, one hour and two hours thereafter, observations were conducted according to the modified method of Irwin's method for observing the general symptoms of mice. Degree of the symptom was evaluated in terms of (+) and (-) and, when the symptom was apparently severe, it was mentioned as (++). Also, death was observed until the next day of the administration.
1) Suppression of spontaneous motility: When mice were transferred from a home cage to a cage for symptom observation and, if motion of the mice was less than the non-administered group at that time, that was evaluated as (+).
2) Muscle relaxation: When forefeet of mice were hung on a wire stretched horizontally so that the mice were hung by means of the forefeet and, if their reaction at that time for climbing up the wire took a longer time than the non-administered group, that was evaluated as (+).
4) Blepharoptosis: If 1/4 or more was closed as compared with the non-administered group, that was evaluated as (+).
5) Salivation: If salivation was noted a little around the mouth, that was evaluated as (+).
6) Death: If dead case was noted, that was mentioned as such.
5-Amino-1,3-diethyl-1,2,3,4-tetrahydropyrido[2,3-d]-pyrimidine-2,4-dione (Control Compound B; a compound mentioned in Japanese Laid-Open Patent Publication Sho-63/45279 and in U.S. Pat. Nos. 4,808,587 and 5,776,942) was used as a control drug.

With `COC(=O)c1cccc(-n2c(=O)n(Cc3ccccc3)c(=O)c3cccnc32)c1` [CP-77059, reference compound] the “Concentration in blood (in words, Table 6)” value [1] was “less than identification limit”.

In the case of `CCn1c(=O)c2ccc(N)nc2n(-c2cc(OC)cc(OC)c2)c1=O` [Compound 5, 7-amino-3-ethyl-1-(3,5-dimethoxyphenyl)-1,2,3,4-tetrahydropyrido[2,3-d]pyrimidine-2,4-dione], the EC50 [2] is reported as 1700 nM, the EC50 [3] is reported as over 100000 nM and the Blepharoptosis ([4]; mouse, in vivo, po, 1000 mg/kg) is reported as “(+) × 3”. The Muscle relaxation ([4]; mouse, in vivo, po, 1000 mg/kg) was “(+) × 3”, the “Suppression of spontaneous motility” value ([4]; mouse, in vivo, po, 1000 mg/kg) was “(+) × 2” and the Death ([4]; 1000 mg/kg) was 0. For the same compound, the AUC [1] was 458 µg·h/mL, the Cmax [1] was 30000 ng/mL and the half-life [1] was 12.1 h. It also gave a Tmax [1] of 3 h.

With `CCCn1c(=O)c2ccc(N)nc2n(-c2cc(OC)cc(OC)c2)c1=O` [Compound 6, 7-amino-1-(3,5-dimethoxyphenyl)-1,2,3,4-tetrahydro-3-propylpyrido[2,3-d]pyrimidine-2,4-dione] the EC50 [2] was 400 nM, the EC50 [3] was over 100000 nM and the Blepharoptosis ([4]; mouse, in vivo, po, 300 mg/kg) was “(+) × 1”. For the same compound, the “Suppression of spontaneous motility” value ([4]; mouse, in vivo, po, 300 mg/kg) was “(+) × 1”, the Blepharoptosis ([4]; mouse, in vivo, po, 1000 mg/kg) was “(+) × 2” and the Muscle relaxation ([4]; mouse, in vivo, po, 1000 mg/kg) was “(+) × 2”. The “Suppression of spontaneous motility” value ([4]; mouse, in vivo, po, 1000 mg/kg) was “(+) × 2”, the Death ([4]; 300 mg/kg) was 0 and the Death ([4]; 1000 mg/kg) was 0. The AUC [1] was 256 µg·h/mL, the Cmax [1] was 13700 ng/mL and the half-life [1] was 28.4 h. The Tmax [1] was 4 h.

In the case of `CCCCn1c(=O)c2ccc(N)nc2n(-c2cc(OC)cc(OC)c2)c1=O` [Compound 7, 7-amino-3-butyl-1-(3,5-dimethoxyphenyl)-1,2,3,4-tetrahydropyrido[2,3-d]pyrimidine-2,4-dione], the EC50 [2] is reported as 590 nM, the Blepharoptosis ([4]; mouse, in vivo, po, 300 mg/kg) is reported as “(+) × 1” and the Muscle relaxation ([4]; mouse, in vivo, po, 300 mg/kg) is reported as “(+) × 2”. For the same compound, the “Suppression of spontaneous motility” value ([4]; mouse, in vivo, po, 300 mg/kg) was “(+) × 2”, the Muscle relaxation ([4]; mouse, in vivo, po, 1000 mg/kg) was “(+) × 3” and the Death ([4]; 300 mg/kg) was 0. For the same compound, the Death ([4]; 1000 mg/kg) was 0, the AUC [1] was 28.6 µg·h/mL and the Cmax [1] was 1600 ng/mL. It also gave a half-life [1] of 131 h and a Tmax [1] of 15 h.

With `COc1cc(OC)cc(-n2c(=O)n(Cc3ccccc3)c(=O)c3ccc(N)nc32)c1` [Compound 8, 7-amino-3-benzyl-1-(3,5-dimethoxyphenyl)-1,2,3,4-tetrahydropyrido[2,3-d]pyrimidine-2,4-dione] the EC50 [2] was 320 nM.

Work on `COc1cc(OC)cc(-n2c(=O)n(CC(C)C)c(=O)c3ccc(N)nc32)c1` [Compound 15] yielded an EC50 [2] of 210 nM, an EC50 [3] of over 100000 nM and an AUC [1] of 134 µg·h/mL. The Cmax [1] was 10100 ng/mL, the half-life [1] was 9.8 h and the Tmax [1] was 2.3 h.

`Nc1ccc2c(=O)n(Cc3ccccc3)c(=O)n(-c3ccccc3)c2n1` [Compound 16, 7-amino-3-benzyl-1,2,3,4-tetrahydro-1-phenylpyrido[2,3-d]pyrimidine-2,4-dione] gave an EC50 [2] of 23 nM and an EC50 [3] of 50100 nM.

Compound `Nc1ccc2c(=O)n(Cc3ccncc3)c(=O)n(-c3ccccc3)c2n1` [Compound 17, 7-amino-1,2,3,4-tetrahydro-1-phenyl-3-(4-picolyl) pyrido[2,3-d]pyrimidine-2,4-dione] has an EC50 [2] of 19 nM.

Work on `COc1cc(OC)cc(-n2c(=O)n(Cc3ccncc3)c(=O)c3ccc(N)nc32)c1` [Compound 18, 7-amino-1-(3,5-dimethoxyphenyl)-1,2,3,4-tetrahydro-3-(4-picolyl)pyrido[2,3-d]pyrimidine-2,4-dione] yielded an EC50 [2] of 61 nM and an EC50 [3] of over 100000 nM.

`COc1ccc(Cn2c(=O)c3ccc(N)nc3n(-c3ccccc3)c2=O)cc1` [Compound 28, 7-amino-1,2,3,4-tetrahydro-3-(4-methoxybenzyl)-1-phenylpyrido[2,3-d]pyrimidine-2,4-dione] gave an EC50 [2] of 45 nM.

With `Nc1ccc2c(=O)n(Cc3ccc(F)cc3)c(=O)n(-c3ccccc3)c2n1` [Compound 29, 7-amino-3-(4-fluorobenzyl)-1,2,3,4-tetrahydro-1-phenylpyrido[2,3-d]pyrimidine-2,4-dione] the EC50 [2] was 76 nM.

`Nc1ccc2c(=O)n(Cc3cccs3)c(=O)n(-c3ccccc3)c2n1` [Compound 37, 7-amino-1,2,3,4-tetrahydro-1-phenyl-3-(2-thienylmethyl)pyrido [2,3-d]pyrimidine-2,4-dione] gave an EC50 [2] of 21 nM.

Compound `Nc1ccc2c(=O)n(Cc3ccco3)c(=O)n(-c3ccccc3)c2n1` [Compound 38, 7-amino-3-(2-furfuryl)-1,2,3,4-tetrahydro-1-phenylpyrido [2,3-d]pyrimidine-2,4-dione] has an EC50 [2] of 40 nM.

Compound `Nc1ccc2c(=O)n(Cc3ccsc3)c(=O)n(-c3ccccc3)c2n1` [Compound 39, 7-amino-1,2,3,4-tetrahydro-1-phenyl-3-(3-thienylmethyl)pyrido [2,3-d]pyrimidine-2,4-dione] has an EC50 [2] of 27 nM.

`CCn1c(=O)c2ccc(N)nc2n(CC)c1=O` [Control Compound A, 7-Amino-1,3-diethyl-1,2,3,4-tetrahydropyrido-[2,3-d]pyrimidine-2,4-dione, reference compound] gave an EC50 [2] of 1010 nM.

For `CCn1c(=O)c2c(N)ccnc2n(CC)c1=O` [Control Compound B, 5-Amino-1,3-diethyl-1,2,3,4-tetrahydropyrido[2,3-d]-pyrimidine-2,4-dione, reference compound], the EC50 [2] was 830 nM, the Blepharoptosis ([4]; mouse, in vivo, po, 100 mg/kg) was “(+) × 2” and the Muscle relaxation ([4]; mouse, in vivo, po, 100 mg/kg) was “(+) × 3”. The Passiveness ([4]; mouse, in vivo, po, 100 mg/kg) was “(+) × 1”, the “Suppression of spontaneous motility” value ([4]; mouse, in vivo, po, 100 mg/kg) was “(+) × 3” and the “Suppression of spontaneous motility” value ([4]; mouse, in vivo, po, 300 mg/kg) was “(+) × 3”. For the same compound, the Death ([4]; 100 mg/kg) was 0 and the Death ([4]; 300 mg/kg) was 0.

With `O=c1c2cccnc2n(-c2cccc([N+](=O)[O-])c2)c(=O)n1Cc1ccncc1` [RS-25344, reference compound] the “Concentration in blood (in words, Table 6)” value [1] was “less than identification limit”.

In the case of `Cn1c(=O)c2[nH]cnc2n(C)c1=O` [theophylline, reference compound], the EC50 [2] is reported as 51000 nM.
